Results as given in ChEMBL document CHEMBL1129805, “Novel conformationally constrained analogues of diacylglycerol. Protein kinase C binding affinity of simplified compounds based on a 6-membered lactam moiety” (Bioorg Med Chem Lett, 1997).

Key:
HL-60 [1] = assay: Effective dose required to […] the differentiation to monocytes of HL-60 cells; type: functional; conditions: Homo sapiens, read-out: ED50 (the source's name)
[2] = molecular target: Protein kinase C delta type (Homo sapiens, UniProt Q05655); assay: Displacement of [3H]PDBu from Protein kinase C delta
Chain of Protein kinase C delta type (Q05655 whole entry): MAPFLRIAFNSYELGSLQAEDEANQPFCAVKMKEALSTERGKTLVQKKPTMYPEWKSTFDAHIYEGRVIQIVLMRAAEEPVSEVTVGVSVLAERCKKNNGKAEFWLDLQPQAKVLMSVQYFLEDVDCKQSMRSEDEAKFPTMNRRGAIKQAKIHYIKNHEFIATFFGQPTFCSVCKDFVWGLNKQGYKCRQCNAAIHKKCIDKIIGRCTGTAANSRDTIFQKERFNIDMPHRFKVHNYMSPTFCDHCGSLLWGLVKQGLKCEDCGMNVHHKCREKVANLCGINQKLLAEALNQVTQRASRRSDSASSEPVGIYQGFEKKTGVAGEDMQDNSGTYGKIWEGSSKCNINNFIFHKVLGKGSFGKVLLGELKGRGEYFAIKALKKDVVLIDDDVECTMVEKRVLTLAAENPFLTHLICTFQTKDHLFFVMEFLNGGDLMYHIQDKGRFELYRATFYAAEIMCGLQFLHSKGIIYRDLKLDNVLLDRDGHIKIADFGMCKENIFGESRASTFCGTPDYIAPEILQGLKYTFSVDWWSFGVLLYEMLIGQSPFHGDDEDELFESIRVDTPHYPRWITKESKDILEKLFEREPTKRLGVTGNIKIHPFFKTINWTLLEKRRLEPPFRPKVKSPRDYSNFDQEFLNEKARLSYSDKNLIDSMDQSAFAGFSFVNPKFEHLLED

HL-60 [3] = assay: Effective dose required to […] the differentiation to monocytes of HL-60 cells; Weaker activity; type: functional; conditions: Homo sapiens, read-out: ED50 (the source's name)
HL-60 [4] = assay: Effective dose required to […] the differentiation to monocytes of HL-60 cells; Inactive; type: functional; conditions: Homo sapiens, read-out: ED50 (the source's name)

EC50 (HL-60 [1]) [µM]	Ki [2] [µM]	EC50 (HL-60 [3]) [µM]	EC50 (HL-60 [4]) [µM]	Structure (SMILES)
0.2	0.29	–	–	CCCCCCCCCCCCCCN1C[C@@H](CO)NC(=O)[C@@H]1C(C)C
–	2.7	1	–	CCCCCCCCCCCCCCN1C[C@H](CO)NC(=O)[C@@H]1C(C)C
–	6.5	–	–	CCCCCCCCCCCCCCN1C[C@@H](CO)NC(=O)[C@H]1C(C)C
–	12	–	> 5	CCCCCCCCCCCCCCN1C[C@H](CO)NC(=O)[C@H]1C(C)C
